Molecules are shown by their SMILES.

T1 sequence (P00742 235-488 limits assumed): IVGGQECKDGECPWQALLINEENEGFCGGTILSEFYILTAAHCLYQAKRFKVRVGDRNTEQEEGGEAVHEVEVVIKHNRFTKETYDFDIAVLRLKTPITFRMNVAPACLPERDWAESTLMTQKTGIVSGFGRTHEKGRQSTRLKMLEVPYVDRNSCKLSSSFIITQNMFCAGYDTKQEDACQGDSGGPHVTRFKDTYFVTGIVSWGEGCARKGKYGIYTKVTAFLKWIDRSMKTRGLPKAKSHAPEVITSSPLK
T1 sequence (P00742 41-179 partner limits assumed): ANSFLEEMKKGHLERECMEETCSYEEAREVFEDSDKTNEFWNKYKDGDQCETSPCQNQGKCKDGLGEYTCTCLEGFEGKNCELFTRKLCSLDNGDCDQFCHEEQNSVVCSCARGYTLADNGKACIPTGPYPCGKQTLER

The assay has as its target T1, human factor Xa (Homo sapiens, UniProt P00742).
T1 construct: human factor Xa (Enzyme Research Laboratories, Inc; South Bend, Ind.); purchased Enzyme Research Laboratories, Inc; South Bend, Ind
As to the kind of experiment: Factor Xa assay (chromogenic, substrate S-2765). Type of assay: biochemical. As to conditions: read-out: Ki(FXa). The essentials:
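Purified human factor Xa (0.5 nM final) in TBS-PEG was preincubated 10 min with compound in DMSO-containing buffer. The reaction was started with chromogenic substrate S-2765 at 140 μM. IC50 was taken from the concentration series.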
For the molecule `CC(C)N1CCC(NC(=O)c2nc3c(C(=O)N4CCCOCC4)scc3n2CC(=O)Nc2ccc(Cl)cn2)CC1` [Example 104, 3-[(5-Chloro-pyridin-2-ylcarbamoyl)-methyl]-6-([1,4]oxazepane-4-carbonyl)-3H-thieno[3,4-d]imidazole-2-carboxylic acid (1-isopropyl-piperidin-4-yl)-amide], the Ki was found to be 20 nM.

Turning to `CC(C)N1CCC(NC(=O)c2nc3cc(C(=O)OCC(=O)O)ccc3n2Cc2cc(-c3ccc(Cl)s3)on2)CC1` [Example 79, 1-[5-(5-Chloro-thiophen-2-yl)-isoxazol-3-ylmethyl]-2-(1-isopropyl-piperidin-4-ylcarbamoyl)-1H-benzoimidazole-5-carboxylic acid carboxymethyl ester], the inhibitory constant (Ki) turned out to be 1 nM.

For `COC(=O)c1sc(OCC(F)(F)F)c2nc(C(=O)NC3CCN(C(C)C)CC3)n(Cc3cc(-c4ccc(Cl)s4)on3)c12` [Example 105, 3-[5-(5-Chloro-thiophen-2-yl)-isoxazol-3-ylmethyl]-2-(1-isopropyl-piperidin-4-ylcarbamoyl)-6-(2,2,2-trifluoro-ethoxy)-3H-thieno[3,4-d]imidazole-4-carboxylic acid methyl ester], the Ki was 54500 nM.

What is called Ki is a measure of affinity in units of concentration, obtained from inhibition or displacement.

The record behind these values is US7741341B2, “Benzimidazole-derivatives as factor Xa inhibitors” (sanofi-aventis Deutschland GmbH, priority 2003, dated 2010).
